The text below walks through data of paper PMC3199286 (ACS chemical biology, 2011).

Experiment [1] concerns the target T1, PRMT1 (Homo sapiens, UniProt Q99873). Kind of experiment: Active PRMT1 in MCF-7 nuclear extracts after estrogen stimulation. It is filed as cell-based. The conditions noted are these: 10 nM E2, 5 minute time point.
For experiment [2], the target named is T1, PRMT1. Kind of experiment: Active PRMT1 in MCF-7 cytoplasmic extracts after estrogen stimulation. It is filed as cell-based.
The subject of experiment [3] is PRMT1. The conditions noted are these: ref [15]–[17]; cited from earlier work.

T1 sequence (Q99873 whole entry): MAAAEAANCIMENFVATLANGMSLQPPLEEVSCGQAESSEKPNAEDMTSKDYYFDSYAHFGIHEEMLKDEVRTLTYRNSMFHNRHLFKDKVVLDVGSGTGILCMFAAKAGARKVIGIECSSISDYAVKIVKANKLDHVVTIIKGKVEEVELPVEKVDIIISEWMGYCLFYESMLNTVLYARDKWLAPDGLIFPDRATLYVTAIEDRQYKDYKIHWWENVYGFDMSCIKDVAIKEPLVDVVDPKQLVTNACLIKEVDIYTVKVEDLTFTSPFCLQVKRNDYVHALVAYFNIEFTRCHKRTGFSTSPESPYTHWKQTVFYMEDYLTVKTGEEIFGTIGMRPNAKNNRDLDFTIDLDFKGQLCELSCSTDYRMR

estrogen: the “maximum reduction of active PRMT1 in nucleus” value at PRMT1 [1] is given as 3 fold. The “increase of active PRMT1 in cytoplasm” value at PRMT1 [2] (10 nM E2, 5 minutes after addition, MCF-7) stood at 2.5 fold. On PRMT1 [2] (10 nM E2, MCF-7), the “time of maximum active PRMT1 in cytoplasm” value is 10 min and the “time of return of active cytoplasmic PRMT1 to basal levels” value is reported as ~ 15 minutes. Besides, at PRMT1 [2] (10 nM E2, MCF-7, 10% loading control, Figure 6A lower panel), the “total PRMT1 levels in cytosolic and nuclear extracts (loading control) after estrogen” value is on record as “remain constant”.
In the case of “AcH4-21: peptide which consists of the first 21 amino acids of histone H4, highly efficient PRMT1 substrate”, the PRMT1 substrate quality entry with PRMT1 [3] was “highly efficient PRMT1 substrate”.
